{
  "source": "ChEMBL document CHEMBL6109074",
  "about": "(Bioorg Med Chem, 2025)",
  "key": {"[1]": {"molecular_target": "T1, Histone acetyltransferase p300/Hypoxia-inducible factor 1-alpha (Homo sapiens, UniProt Q09472+Q16665)", "T1 sequence (Q09472 whole entry)": "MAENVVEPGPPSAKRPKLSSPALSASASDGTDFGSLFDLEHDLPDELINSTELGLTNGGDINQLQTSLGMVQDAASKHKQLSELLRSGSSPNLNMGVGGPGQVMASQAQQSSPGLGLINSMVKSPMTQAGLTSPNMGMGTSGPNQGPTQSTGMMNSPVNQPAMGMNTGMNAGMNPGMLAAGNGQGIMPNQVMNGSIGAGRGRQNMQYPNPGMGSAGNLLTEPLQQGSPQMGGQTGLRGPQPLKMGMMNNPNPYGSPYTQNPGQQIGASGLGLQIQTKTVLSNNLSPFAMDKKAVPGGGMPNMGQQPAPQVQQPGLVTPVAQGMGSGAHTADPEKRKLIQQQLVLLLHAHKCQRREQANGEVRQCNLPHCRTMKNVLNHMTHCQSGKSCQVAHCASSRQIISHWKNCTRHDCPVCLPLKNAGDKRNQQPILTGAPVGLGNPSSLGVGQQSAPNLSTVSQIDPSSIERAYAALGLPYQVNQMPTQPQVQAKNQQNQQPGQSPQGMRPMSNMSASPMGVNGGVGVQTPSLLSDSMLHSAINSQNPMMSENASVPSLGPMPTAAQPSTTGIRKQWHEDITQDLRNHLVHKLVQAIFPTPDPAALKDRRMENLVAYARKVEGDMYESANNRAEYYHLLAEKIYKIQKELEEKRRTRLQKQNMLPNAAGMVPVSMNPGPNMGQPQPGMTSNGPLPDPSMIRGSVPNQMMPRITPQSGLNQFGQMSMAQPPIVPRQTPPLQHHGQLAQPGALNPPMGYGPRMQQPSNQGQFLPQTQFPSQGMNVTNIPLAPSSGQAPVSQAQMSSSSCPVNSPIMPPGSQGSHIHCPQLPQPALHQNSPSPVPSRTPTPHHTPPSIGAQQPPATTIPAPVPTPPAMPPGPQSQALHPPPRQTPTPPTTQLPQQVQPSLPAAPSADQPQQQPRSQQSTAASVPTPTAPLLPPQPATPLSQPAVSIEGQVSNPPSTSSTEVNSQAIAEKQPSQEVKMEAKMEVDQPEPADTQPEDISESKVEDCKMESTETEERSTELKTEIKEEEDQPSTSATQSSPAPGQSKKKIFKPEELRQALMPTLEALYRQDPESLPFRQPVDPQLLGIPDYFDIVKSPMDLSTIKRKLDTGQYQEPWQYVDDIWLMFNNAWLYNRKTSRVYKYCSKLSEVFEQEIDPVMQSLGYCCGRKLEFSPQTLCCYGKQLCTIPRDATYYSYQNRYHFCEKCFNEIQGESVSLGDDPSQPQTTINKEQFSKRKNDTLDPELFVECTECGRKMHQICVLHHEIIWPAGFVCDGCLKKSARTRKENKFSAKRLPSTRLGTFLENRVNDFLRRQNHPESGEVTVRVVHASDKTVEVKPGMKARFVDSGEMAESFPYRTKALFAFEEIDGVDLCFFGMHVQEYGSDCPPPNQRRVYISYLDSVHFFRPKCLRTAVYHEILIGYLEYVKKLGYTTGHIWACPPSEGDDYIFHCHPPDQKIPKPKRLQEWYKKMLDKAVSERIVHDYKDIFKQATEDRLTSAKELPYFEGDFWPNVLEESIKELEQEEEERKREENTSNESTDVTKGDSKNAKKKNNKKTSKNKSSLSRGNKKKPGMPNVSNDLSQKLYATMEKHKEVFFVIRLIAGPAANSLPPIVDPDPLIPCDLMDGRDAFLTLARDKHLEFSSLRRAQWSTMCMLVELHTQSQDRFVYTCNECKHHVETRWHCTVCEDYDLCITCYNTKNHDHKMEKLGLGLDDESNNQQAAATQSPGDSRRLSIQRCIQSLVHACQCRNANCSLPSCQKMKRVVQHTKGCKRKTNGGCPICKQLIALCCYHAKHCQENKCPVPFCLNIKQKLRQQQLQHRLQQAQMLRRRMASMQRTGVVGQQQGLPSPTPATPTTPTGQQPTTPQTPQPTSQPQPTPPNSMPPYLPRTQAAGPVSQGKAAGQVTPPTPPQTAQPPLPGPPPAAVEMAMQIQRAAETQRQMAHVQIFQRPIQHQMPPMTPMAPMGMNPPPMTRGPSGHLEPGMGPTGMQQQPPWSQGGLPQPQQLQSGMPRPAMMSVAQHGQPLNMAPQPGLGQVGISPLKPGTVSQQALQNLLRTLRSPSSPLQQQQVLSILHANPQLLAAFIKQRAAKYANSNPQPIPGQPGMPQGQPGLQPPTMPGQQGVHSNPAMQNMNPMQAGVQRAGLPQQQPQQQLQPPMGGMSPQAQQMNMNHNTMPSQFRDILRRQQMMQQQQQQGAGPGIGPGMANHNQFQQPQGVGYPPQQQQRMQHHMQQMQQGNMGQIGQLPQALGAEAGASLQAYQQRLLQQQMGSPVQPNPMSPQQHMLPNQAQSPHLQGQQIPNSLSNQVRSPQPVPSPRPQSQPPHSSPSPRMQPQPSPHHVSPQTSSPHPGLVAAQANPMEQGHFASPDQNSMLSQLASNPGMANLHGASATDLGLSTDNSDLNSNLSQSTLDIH", "T1 sequence (Q16665 whole entry)": "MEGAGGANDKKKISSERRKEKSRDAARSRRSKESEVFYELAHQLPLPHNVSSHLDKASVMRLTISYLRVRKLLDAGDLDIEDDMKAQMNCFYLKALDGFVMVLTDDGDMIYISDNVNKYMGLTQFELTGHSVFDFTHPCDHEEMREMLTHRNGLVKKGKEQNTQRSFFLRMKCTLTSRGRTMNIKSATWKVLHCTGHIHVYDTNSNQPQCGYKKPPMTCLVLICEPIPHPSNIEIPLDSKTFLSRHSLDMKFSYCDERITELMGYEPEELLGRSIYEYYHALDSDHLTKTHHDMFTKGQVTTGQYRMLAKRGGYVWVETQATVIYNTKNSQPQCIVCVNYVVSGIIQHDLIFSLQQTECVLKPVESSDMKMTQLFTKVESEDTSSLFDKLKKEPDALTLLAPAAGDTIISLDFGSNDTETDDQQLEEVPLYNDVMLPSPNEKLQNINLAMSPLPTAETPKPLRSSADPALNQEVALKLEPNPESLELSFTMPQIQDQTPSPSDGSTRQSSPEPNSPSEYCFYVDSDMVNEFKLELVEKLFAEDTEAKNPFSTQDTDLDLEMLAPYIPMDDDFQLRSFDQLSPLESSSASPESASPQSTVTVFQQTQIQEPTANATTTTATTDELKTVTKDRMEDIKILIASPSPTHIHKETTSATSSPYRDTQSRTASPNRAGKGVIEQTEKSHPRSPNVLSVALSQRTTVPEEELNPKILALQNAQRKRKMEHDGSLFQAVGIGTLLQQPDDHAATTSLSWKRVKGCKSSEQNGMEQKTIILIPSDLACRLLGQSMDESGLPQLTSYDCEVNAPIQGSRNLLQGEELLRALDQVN", "experiment": "Inhibition of HIF-1alpha/p300 PPI (unknown origin)", "type": "protein-complex assay"}, "HeLa [2]": {"tested_on": "HeLa", "experiment": "Effect on HIF-1alpa protein expression in human HeLa cells at 1 to 100 uM incubated under hypoxia condition for 8 hrs by Western blot analysis", "type": "functional, cell-based", "conditions": "dose 1-100 µM"}, "HeLa [3]": {"tested_on": "HeLa", "experiment": "Effect on HIF-1alpa mRNA expression in human HeLa cells at 1 to 100 uM incubated under hypoxia condition for 8 hrs by real-time analysis", "type": "functional, cell-based", "conditions": "dose 1-100 µM"}, "HeLa [4]": {"tested_on": "HeLa", "experiment": "Downregulation of CAIX mRNA expression in human HeLa cells at 1 to 100 uM incubated under hypoxia condition for 8 hrs by real-time analysis", "type": "functional, cell-based", "conditions": "dose 1-100 µM"}, "HeLa [5]": {"tested_on": "HeLa", "experiment": "Downregulation of BAX mRNA expression in human HeLa cells at 1 to 100 uM incubated under hypoxia condition for 8 hrs by RT-PCR analysis", "type": "functional, cell-based", "conditions": "dose 1-100 µM"}, "HeLa [6]": {"tested_on": "HeLa", "experiment": "Effect on p53 mRNA expression in human HeLa cells at 1 to 100 uM incubated under hypoxia condition for 8 hrs by RT-PCR analysis", "type": "functional, cell-based", "conditions": "dose 1-100 µM"}, "HeLa [7]": {"tested_on": "HeLa", "experiment": "Downregulation of c-MYC mRNA expression in human HeLa cells at 1 to 100 uM incubated under hypoxia condition for 8 hrs by RT-PCR analysis", "type": "functional, cell-based", "conditions": "dose 1-100 µM"}, "HeLa [8]": {"tested_on": "HeLa", "experiment": "Effect on STAT3 mRNA expression in human HeLa cells at 1 to 100 uM incubated under hypoxia condition for 8 hrs by RT-PCR analysis", "type": "functional, cell-based", "conditions": "dose 1-100 µM"}, "[9]": {"molecular_target": "Histone acetyltransferase p300 (Homo sapiens, UniProt Q09472)", "sequence (Q09472 whole entry, the tested form may be a part)": "as the sequence (Q09472 whole entry) above", "experiment": "Inhibition of p300 CH1 domain (unknown origin) by tryptophan fluorescence spectroscopy analysis"}, "[10]": {"molecular_target": "T1, Histone acetyltransferase p300/Hypoxia-inducible factor 1-alpha", "experiment": "Inhibition of HIF-1alpha(unknown origin)/human p300 CH1 domain (323 to 423 residues) PPI extracted from Escherichia coli incubated for 1 hr by SpectraMax iD5 MultiMode microplate reader analysis", "type": "protein-complex assay"}, "[11]": {"experiment": "Inhibition of HIF transcriptional activity in human HeLa cells harbouring HRE-luc preincubated for 1 hr under normoxic condition followed by 8 hrs incubation under hypoxic condition by luciferase reporter assay", "type": "cell-based"}},
  "note": "pIC50: −log10 of the molar value. Where a name gives a salt, the structure may show the parent alone. Active and inactive are the calls of the source. The calls are words filed in the database; no cut-off is given here.",
  "data": [
    {"molecule": "COC(=O)c1ccc(O)c(NC(=O)COc2ccc(C34CC5CC(CC(C5)C3)C4)cc2)c1", "values": [
      {"measurement": "pIC50", "setting": "[1]", "value": 5.36}
    ]},
    {"molecule": "O=C(Nc1ccc([N+](=O)[O-])cc1Cl)c1cc(Cl)ccc1O", "values": [
      {"measurement": "Activity", "setting": "HeLa [2]", "value": "inactive"},
      {"measurement": "Activity", "setting": "HeLa [3]", "value": "inactive"},
      {"measurement": "Activity", "setting": "HeLa [4]", "value": "Active"},
      {"measurement": "Activity", "setting": "HeLa [5]", "value": "Active"},
      {"measurement": "Activity", "setting": "HeLa [6]", "value": "inactive"},
      {"measurement": "Activity", "setting": "HeLa [7]", "value": "Active"},
      {"measurement": "Activity", "setting": "HeLa [8]", "value": "inactive"}
    ]},
    {"molecule": "CC(C)C[C@@H]1NCCN([C@@H](CC(C)C)C(=O)N2CCN([C@@H](CCC(N)=O)C(N)=O)C(=O)[C@@H]2C)C1=O", "values": [
      {"measurement": "pIC50", "setting": "[9]", "value": 6.28},
      {"measurement": "pIC50", "setting": "[10]", "value": 7.29}
    ]},
    {"molecule": "Fc1ccc(C(c2ccc(F)cc2)N2CCN(C/C=C/c3ccccc3)CC2)cc1", "note": "[FLUNARIZINE HYDROCHLORIDE]", "values": [
      {"measurement": "pIC50", "setting": "[11]", "value": 5.05}
    ]},
    {"molecule": "[N-]=[N+]=Nc1cc(O)c(C(=O)Nc2ccc([N+](=O)[O-])cc2Cl)cc1Cl", "values": [
      {"measurement": "Activity", "setting": "HeLa [2]", "value": "inactive"}
    ]},
    {"molecule": "C[C@@]12C(=O)OC(=O)[C@]1(C)[C@H]1CC[C@@H]2O1", "note": "[CANTHARIDIN]", "values": [
      {"measurement": "pIC50", "setting": "[11]", "value": 5.25}
    ]},
    {"molecule": "COC1=C(N)C(=O)c2nc(-c3nc(C(=O)O)c(C)c(-c4ccc(OC)c(OC)c4O)c3N)ccc2C1=O", "note": "[STREPTONIGRIN]", "values": [
      {"measurement": "pIC50", "setting": "[10]", "value": 5.86}
    ]},
    {"molecule": "OCCN1CCN(CCCN2c3ccccc3Sc3ccc(Cl)cc32)CC1", "note": "[PERPHENAZINE]", "values": [
      {"measurement": "pIC50", "setting": "[11]", "value": 4.84},
      {"measurement": "Activity", "setting": "HeLa [2]", "value": "inactive"}
    ]}
  ]
}
